Measurements published in ChEMBL document CHEMBL1201862, “PubChem BioAssay data set” (2004).
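Exposure lasted 48 hours, with cells grown in 96-well plates and compounds tested at five concentrations. GI50: concentration for 50% inhibition of growth.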 Activity calls are given as the source filed them. Cut-off read from the data, not from the text of the source: active = GI50 up to about 1.1 µM and inactive = higher.

Assays:
Assay in all cases: DTP human tumour cell line panel, 48 h
[1] = test system: IGROV-1
[2] = test system: HOP-62
[3] = test system: SK-MEL-2
[4] = test system: RPMI-8226
[5] = test system: KM12
[6] = test system: CAKI-1
[7] = test system: HT-29
[8] = test system: OVCAR-5
[9] = test system: SN12C
[10] = test system: SF-539
[11] = test system: XF498
[12] = test system: HCT-15
[13] = test system: ACHN
[14] = test system: SNB-19
[15] = test system: SF-295
[16] = test system: OVCAR-3
[17] = test system: LOX IMVI
[18] = test system: SK-OV-3
[19] = test system: BT-549
[20] = test system: T47D

`COC(=O)C(=O)C(C(=O)C=C(C)C)C(=O)C(=O)Nc1cccc(C(C)=O)c1` (centres undefined) was tested, and the GI50 [1] was > 100 µM (inactive), the GI50 [2] was > 100 µM (inactive) and the GI50 [3] was > 100 µM (inactive). The GI50 [4] was > 100 µM (inactive), the GI50 [5] was > 100 µM (inactive) and the GI50 [6] was > 100 µM (inactive). The GI50 [7] was > 100 µM (inactive), the GI50 [8] was > 100 µM (inactive) and the GI50 [9] was > 100 µM (inactive). For the same compound, the GI50 [10] was > 100 µM (inactive), the GI50 [11] was > 100 µM (inactive) and the GI50 [12] was greater than 100 µM. The GI50 [13] was > 100 µM (inactive), the GI50 [14] was > 100 µM (inactive) and the GI50 [15] was > 100 µM (inactive). The GI50 [16] was > 100 µM (inactive), the GI50 [17] was > 100 µM (inactive) and the GI50 [18] was > 100 µM (inactive).

For `CCOc1ccccc1NC(=O)CCc1nnc2s/c(=C\CCc3ccccc3)c(=O)n12`, the GI50 [1] was > 100 µM (inactive), the GI50 [2] was > 100 µM (inactive) and the GI50 [3] was > 100 µM (inactive). The GI50 [4] was > 100 µM (inactive), the GI50 [5] was > 100 µM (inactive) and the GI50 [6] was > 100 µM (inactive). The GI50 [7] was > 100 µM (inactive), the GI50 [8] was > 100 µM (inactive) and the GI50 [9] was > 100 µM (inactive). For the same compound, the GI50 [10] was > 100 µM (inactive), the GI50 [11] was > 100 µM (inactive) and the GI50 [12] was greater than 100 µM. For the same compound, the GI50 [13] was > 100 µM (inactive), the GI50 [14] was > 100 µM (inactive) and the GI50 [15] was > 100 µM (inactive). The GI50 [16] was > 100 µM (inactive), the GI50 [17] was > 100 µM (inactive) and the GI50 [18] was > 100 µM (inactive).

With `Nc1nc(-c2ccccc2)c(Cl)c(-c2cc(Cl)ccc2O)n1` the GI50 [1] was 19.4 µM (inactive), the GI50 [2] was 14.9 µM (inactive) and the GI50 [3] was 38.4 µM (inactive). For the same compound, the GI50 [4] was > 86.7 µM (inactive), the GI50 [5] was 16.7 µM (inactive) and the GI50 [6] was 20.5 µM (inactive). For the same compound, the GI50 [7] was 49.2 µM (inactive), the GI50 [8] was > 60 µM (inactive) and the GI50 [9] was 25.4 µM (inactive). For the same compound, the GI50 [10] was 25.1 µM (inactive), the GI50 [11] was 28.8 µM (inactive) and the GI50 [19] was 20.4 µM (inactive). The GI50 [12] was 18.4 µM, the GI50 [13] was 8.89 µM (inactive) and the GI50 [20] was 3.15 µM (inactive). For the same compound, the GI50 [14] was 19.2 µM (inactive), the GI50 [15] was 48.4 µM (inactive) and the GI50 [16] was 16.1 µM (inactive). The GI50 [17] was 21.2 µM (inactive) and the GI50 [18] was 17.3 µM (inactive).

With `N#CC1(C2SCC[S+]2[O-])C2=C(C(=O)c3ccccc3C2=O)N2CCCC21` (centres undefined) the GI50 [1] was 1.75 µM (inactive), the GI50 [2] was 5.28 µM (inactive) and the GI50 [3] was 1.69 µM (inactive). For the same compound, the GI50 [4] was 1.05 µM (active), the GI50 [5] was 3.02 µM (inactive) and the GI50 [6] was 4.42 µM (inactive). For the same compound, the GI50 [7] was 3.59 µM (inactive), the GI50 [8] was 3.78 µM (inactive) and the GI50 [9] was 2.38 µM (inactive). The GI50 [10] was 3 µM (inactive), the GI50 [11] was 2.55 µM (inactive) and the GI50 [19] was 2.29 µM (inactive). For the same compound, the GI50 [12] was 2.21 µM, the GI50 [13] was 5.52 µM (inactive) and the GI50 [20] was 3.3 µM (inactive). The GI50 [14] was 6.35 µM (inactive), the GI50 [15] was 1.99 µM (inactive) and the GI50 [16] was 0.583 µM (active). The GI50 [17] was 0.986 µM (active) and the GI50 [18] was 15.3 µM (inactive).

For `CC[C@]1(O)C[C@H]2CN(CCc3c([nH]c4ccccc34)[C@@](C(=O)OC)(c3cc4c(cc3OC)N(C)[C@H]3[C@@](O)(C(=O)OC)[C@H](OC(C)=O)[C@]5(CC)C=CCN6CC[C@]43[C@@H]65)C2)C1`, the GI50 [1] was 0.00129 µM (active), the GI50 [2] was 0.000832 µM (active) and the GI50 [3] was 0.000762 µM (active). The GI50 [4] was 0.000679 µM (active), the GI50 [5] was 0.000493 µM (active) and the GI50 [6] was 0.00706 µM (active). The GI50 [7] was 0.000408 µM (active), the GI50 [9] was 0.00132 µM (active) and the GI50 [10] was 0.000605 µM (active). The GI50 [11] was 0.000402 µM (active), the GI50 [19] was 0.00126 µM (active) and the GI50 [12] was 0.0241 µM. The GI50 [13] was 0.00849 µM (active), the GI50 [14] was 0.00115 µM (active) and the GI50 [15] was 0.000492 µM (active). For the same compound, the GI50 [16] was 0.00038 µM (active), the GI50 [17] was 0.000538 µM (active) and the GI50 [18] was 0.000867 µM (active).
